Measured values from article PMC6017062, “Probing the Inhibitor versus Chaperone Properties of sp^2-Iminosugars towards Human β-Glucocerebrosidase: A Picomolar Chaperone for Gaucher Disease” (Molecules : A Journal of Synthetic Chemistry and Natural …, 2018).
Like-named read-outs stand apart in the source and are kept apart here.

Key:
Type in all cases: biochemical
[1] = target: T1, α-mannosidase from Jack bean (α-Manase) (Canavalia ensiformis, UniProt C0HJB3); test: Commercial glycosidase inhibition: α-mannosidase from Jack bean (α-Manase); conditions: mean ± SD, three determinations; competitive; n.i. = no inhibition detected at 1 mM
T1 construct: purchased
T1 sequence (C0HJB3 1-981): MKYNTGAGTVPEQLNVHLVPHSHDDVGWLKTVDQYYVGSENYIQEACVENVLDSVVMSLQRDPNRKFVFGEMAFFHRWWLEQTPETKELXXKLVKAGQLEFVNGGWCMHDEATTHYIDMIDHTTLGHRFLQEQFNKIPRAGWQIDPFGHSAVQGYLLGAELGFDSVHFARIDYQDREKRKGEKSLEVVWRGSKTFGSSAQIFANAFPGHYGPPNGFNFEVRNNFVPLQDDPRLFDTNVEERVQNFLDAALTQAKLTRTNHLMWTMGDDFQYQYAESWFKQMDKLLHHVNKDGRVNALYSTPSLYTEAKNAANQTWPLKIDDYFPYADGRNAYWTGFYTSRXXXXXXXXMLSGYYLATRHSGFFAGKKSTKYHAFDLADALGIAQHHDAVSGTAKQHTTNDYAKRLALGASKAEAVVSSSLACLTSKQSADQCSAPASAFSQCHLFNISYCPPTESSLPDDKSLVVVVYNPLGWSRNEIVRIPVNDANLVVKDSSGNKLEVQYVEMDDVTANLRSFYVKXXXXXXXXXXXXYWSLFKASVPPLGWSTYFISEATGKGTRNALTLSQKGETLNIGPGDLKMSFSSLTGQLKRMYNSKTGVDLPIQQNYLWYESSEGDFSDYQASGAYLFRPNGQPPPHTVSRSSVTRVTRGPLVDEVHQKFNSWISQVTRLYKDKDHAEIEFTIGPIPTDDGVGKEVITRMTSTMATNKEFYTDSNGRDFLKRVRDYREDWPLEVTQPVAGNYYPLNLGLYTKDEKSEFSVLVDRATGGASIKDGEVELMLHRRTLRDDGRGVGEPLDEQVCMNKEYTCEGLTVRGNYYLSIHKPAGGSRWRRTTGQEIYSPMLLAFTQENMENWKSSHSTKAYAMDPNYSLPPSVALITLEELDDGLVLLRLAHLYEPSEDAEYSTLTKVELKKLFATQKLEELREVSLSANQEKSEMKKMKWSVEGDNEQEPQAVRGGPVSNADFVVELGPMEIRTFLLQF
Source text: (§1) We first evaluated the inhibitory properties of the new nonreducing mono- and bicyclic sp^2-iminosugars 4–15 against a panel of commercial glycosidases that included the α-glucosidases maltase (yeast maltase; α-Glcase1) and isomaltase (α-Glcase2) from Saccharomyces cerevisiae and amyloglucosidase (α-Glcase3) from Aspergillus niger, the β-glucosidases from almonds (β-Glcase1) and bovine liver (β-Glcase2), the α-galactosidase from green coffee beans (α-Galase), the β-galactosidase from Escherichia coli (β-Galase), and the α-mannosidase from Jack bean (α-Manase).
(§2) Inhibition constant (Ki) values were determined by spectrophotometrically measuring the residual hydrolytic activities of the glycosidases against the respective o- (for β-galactosidase from E. coli) or p-nitrophenyl α- or β-D-glycopyranoside (for other glycosidases) in the presence of the iminosugars. Each assay was performed in phosphate buffer or phosphate-citrate buffer (for α- or β-mannosidase and amyloglucosidase) at the optimal pH for the enzymes. The reactions were initiated by addition of the enzyme to a solution of the substrate in the absence or presence of various inhibitor concentrations. The mixture was incubated for 10–30 min at 37 °C or 55 °C (for amyloglucosidase) and the reaction was quenched by addition of 1 M Na2CO3. Reaction times were appropriate to obtain 10–20% conversion of the substrate in order to achieve linear rates. The absorbance of the resulting mixture was determined at 405 nm. Approximate value of Ki was determined from the slope of Dixon plots using a fixed concentration of substrate (around the Km value for the different glycosidases) and various concentrations of inhibitor. Full Ki determinations and enzyme inhibition mode were determined from the slope of Lineweaver–Burk plots and double reciprocal analysis.

isomaltase (α-Glcase2) = target: T2, isomaltase (α-Glcase2) (Saccharomyces cerevisiae, UniProt P53051); test: Commercial glycosidase inhibition: isomaltase (α-Glcase2)
T2 construct: purchased
T2 sequence (P53051 whole entry): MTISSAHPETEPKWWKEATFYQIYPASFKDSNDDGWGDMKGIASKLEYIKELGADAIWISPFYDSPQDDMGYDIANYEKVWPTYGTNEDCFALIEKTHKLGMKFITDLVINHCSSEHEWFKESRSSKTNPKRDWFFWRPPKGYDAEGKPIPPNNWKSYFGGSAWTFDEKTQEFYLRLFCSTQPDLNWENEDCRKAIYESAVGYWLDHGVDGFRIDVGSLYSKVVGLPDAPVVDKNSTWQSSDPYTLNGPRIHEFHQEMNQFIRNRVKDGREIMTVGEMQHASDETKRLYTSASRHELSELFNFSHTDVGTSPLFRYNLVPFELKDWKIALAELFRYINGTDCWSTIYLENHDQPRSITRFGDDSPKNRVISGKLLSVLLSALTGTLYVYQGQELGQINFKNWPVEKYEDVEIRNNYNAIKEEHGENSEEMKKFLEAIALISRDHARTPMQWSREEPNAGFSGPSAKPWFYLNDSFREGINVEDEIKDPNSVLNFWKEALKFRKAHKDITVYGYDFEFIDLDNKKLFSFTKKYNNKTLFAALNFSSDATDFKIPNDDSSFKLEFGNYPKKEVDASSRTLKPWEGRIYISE
Source text: as §1, §2

[2] = target: β-glucosidase from almonds (β-Glcase1); test: Commercial glycosidase inhibition: β-glucosidase from almonds (β-Glcase1); conditions: mean ± SD, three determinations; competitive; n.i. = no inhibition detected at 1 mM
Source text: as §1, §2

[3] = target: T3, β-galactosidase (β-Galase) (Escherichia coli, UniProt P00722); test: Commercial glycosidase inhibition: β-galactosidase from E. coli (β-Galase); conditions: mean ± SD, three determinations; competitive; n.i. = no inhibition detected at 1 mM
T3 construct: purchased
T3 sequence (P00722 2-1024 limits assumed): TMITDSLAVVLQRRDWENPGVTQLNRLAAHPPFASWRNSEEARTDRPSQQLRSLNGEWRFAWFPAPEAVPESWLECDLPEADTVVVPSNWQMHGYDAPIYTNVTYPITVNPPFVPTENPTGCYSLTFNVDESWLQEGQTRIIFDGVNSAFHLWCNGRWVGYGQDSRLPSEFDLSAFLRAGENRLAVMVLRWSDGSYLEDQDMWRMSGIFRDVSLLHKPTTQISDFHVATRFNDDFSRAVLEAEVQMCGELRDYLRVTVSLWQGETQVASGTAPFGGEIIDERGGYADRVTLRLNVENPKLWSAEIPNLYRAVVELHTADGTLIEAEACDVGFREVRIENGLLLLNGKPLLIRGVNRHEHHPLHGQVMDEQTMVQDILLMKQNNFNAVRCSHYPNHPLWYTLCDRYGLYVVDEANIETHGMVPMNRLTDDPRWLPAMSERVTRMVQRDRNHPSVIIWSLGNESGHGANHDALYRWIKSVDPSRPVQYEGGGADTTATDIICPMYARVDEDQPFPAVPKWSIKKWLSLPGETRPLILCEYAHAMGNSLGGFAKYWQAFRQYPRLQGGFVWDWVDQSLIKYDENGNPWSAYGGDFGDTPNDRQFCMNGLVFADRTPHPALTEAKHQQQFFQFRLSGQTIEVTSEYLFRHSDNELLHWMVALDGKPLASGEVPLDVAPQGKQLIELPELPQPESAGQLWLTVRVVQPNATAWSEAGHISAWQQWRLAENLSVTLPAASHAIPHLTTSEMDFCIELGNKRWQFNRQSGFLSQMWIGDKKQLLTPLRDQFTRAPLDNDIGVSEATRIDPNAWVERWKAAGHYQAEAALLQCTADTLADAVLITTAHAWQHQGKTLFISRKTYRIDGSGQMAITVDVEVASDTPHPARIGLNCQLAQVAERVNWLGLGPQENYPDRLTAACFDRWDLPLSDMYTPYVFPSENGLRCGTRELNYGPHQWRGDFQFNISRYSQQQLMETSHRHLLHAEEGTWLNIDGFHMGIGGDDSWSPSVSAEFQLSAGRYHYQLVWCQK
Source text: as §1, §2

[4] = target: T4, amyloglucosidase (α-Glcase3) (Aspergillus niger, UniProt P69328); test: Commercial glycosidase inhibition: amyloglucosidase (α-Glcase3); conditions: mean ± SD, three determinations; competitive; n.i. = no inhibition detected at 1 mM
T4 construct: purchased
T4 sequence (P69328 25-640): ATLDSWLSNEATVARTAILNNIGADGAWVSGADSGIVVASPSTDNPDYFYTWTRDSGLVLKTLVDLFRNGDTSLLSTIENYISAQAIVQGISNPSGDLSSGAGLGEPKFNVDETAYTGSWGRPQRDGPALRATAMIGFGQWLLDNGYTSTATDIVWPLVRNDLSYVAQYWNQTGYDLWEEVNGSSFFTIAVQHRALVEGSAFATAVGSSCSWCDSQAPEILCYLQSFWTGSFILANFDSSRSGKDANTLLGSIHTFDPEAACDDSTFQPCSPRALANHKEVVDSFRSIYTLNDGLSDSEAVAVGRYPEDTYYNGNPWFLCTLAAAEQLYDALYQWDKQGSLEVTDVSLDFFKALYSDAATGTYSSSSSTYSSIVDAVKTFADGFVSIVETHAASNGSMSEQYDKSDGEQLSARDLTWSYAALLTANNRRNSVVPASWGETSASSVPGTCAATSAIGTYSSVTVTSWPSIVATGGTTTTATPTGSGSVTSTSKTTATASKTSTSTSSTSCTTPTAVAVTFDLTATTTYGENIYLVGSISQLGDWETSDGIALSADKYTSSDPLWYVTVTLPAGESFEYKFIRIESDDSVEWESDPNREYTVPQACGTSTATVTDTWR
Source text: as §1, §2

[5] = target: T5, α-galactosidase from green coffee beans (α-Galase) (Coffea arabica, UniProt Q42656); test: Commercial glycosidase inhibition: α-galactosidase from green coffee beans (α-Galase); conditions: mean ± SD, three determinations; competitive; n.i. = no inhibition detected at 1 mM
T5 construct: purchased
T5 sequence (Q42656 16-378): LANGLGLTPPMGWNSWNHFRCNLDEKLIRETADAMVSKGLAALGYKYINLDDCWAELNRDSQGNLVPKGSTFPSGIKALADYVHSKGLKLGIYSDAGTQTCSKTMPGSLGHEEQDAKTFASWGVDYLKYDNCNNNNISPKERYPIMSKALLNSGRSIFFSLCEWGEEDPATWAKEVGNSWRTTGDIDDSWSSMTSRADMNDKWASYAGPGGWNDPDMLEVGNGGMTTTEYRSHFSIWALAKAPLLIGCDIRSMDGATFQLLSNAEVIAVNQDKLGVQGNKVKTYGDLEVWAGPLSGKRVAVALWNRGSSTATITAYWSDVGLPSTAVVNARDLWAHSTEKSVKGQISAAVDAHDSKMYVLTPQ
Source text: as §1, §2

[6] = target: T6, α-glucosidase maltase (yeast maltase; α-Glcase1) (Saccharomyces cerevisiae, UniProt P53341); test: Commercial glycosidase inhibition: maltase (yeast maltase; α-Glcase1); conditions: three determinations, competitive, n.i. = no inhibition detected at 1 mM
T6 construct: purchased
T6 sequence (P53341 whole entry): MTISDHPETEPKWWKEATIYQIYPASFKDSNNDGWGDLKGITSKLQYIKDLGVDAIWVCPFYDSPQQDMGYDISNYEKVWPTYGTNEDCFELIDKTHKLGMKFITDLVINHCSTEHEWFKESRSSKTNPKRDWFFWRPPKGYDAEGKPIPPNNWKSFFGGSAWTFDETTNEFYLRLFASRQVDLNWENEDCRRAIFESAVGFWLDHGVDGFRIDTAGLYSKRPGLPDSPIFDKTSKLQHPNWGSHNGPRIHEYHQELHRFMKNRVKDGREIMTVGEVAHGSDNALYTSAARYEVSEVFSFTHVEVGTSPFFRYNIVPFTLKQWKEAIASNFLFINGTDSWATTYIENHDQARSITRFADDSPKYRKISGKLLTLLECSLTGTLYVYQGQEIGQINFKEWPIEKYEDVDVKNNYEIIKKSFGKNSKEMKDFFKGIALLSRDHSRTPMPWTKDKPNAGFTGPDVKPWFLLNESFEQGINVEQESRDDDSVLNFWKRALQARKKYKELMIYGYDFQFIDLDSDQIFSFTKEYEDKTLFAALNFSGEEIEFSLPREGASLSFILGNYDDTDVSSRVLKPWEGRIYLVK
Source text: as §1, §2

[7] = mean ± SD, three determinations, competitive, n.i. = no inhibition detected at 1 mM
[8] = Dixon or Lineweaver-Burk plot, read-out: Ki against isomaltase (supplement figure legends)
[9] = mean ± SD, three determinations, competitive, n.i. = no inhibition detected at 1 mM, read-out: Ki α-Glcase2

Row | Compound | Ki α-Manase [1] | Ki α-Glcase2 (isomaltase (α-Glcase2); [7]) | Ki [2] | Ki β-Galase [3] | Ki α-Glcase3 [4] | Ki α-Galase [5] | Ki α-Glcase1 ([6]; mean ± SD) | Ki (isomaltase (α-Glcase2); [8]) | Ki [4] | Ki ([6]; Ki α-Glcase1, mean ± SD) | Ki [5] | Ki (isomaltase (α-Glcase2); [9]) | Ki ([6]; mean ± SD, read-out: Ki α-Glcase1) | Ki [1]
1 | CCCCN=C1SCC2C(O)C(O)C(O)CN12 (stereo not drawn) [Compound 5, 1-Deoxy-6-thio-5-N,6-S-(N′-butyliminomethylidene)nojirimycin] | n.i. | n.i. | 1.1 ± 0.1 µM | n.i. | n.i. | n.i. | n.i. | – | – | – | – | – | – | –
2 | OC1CN2C(=Nc3ccccc3)SCC2C(O)C1O (stereo not drawn) [Compound 6, 1-Deoxy-6-thio-5-N,6-S-(N′-phenyliminomethylidene)nojirimycin] | n.i. | n.i. | 48 ± 4 µM | n.i. | – | n.i. | – | 44 ± 3 µM | 44 ± 3 µM | 406 ± 20 µM | – | – | – | –
3 | CCCCCCCCN=C1SCC2C(O)C(O)C(O)CN12 [Compound 7, 5-N,6-S-(N′-Octyliminomethylidene)-6-thio-1-deoxy-L-idonojirimycin] | n.i. | n.i. | 3.9 ± 0.3 µM | n.i. | n.i. | – | n.i. | – | – | – | 504 ± 32 µM | – | – | –
4 | CCCCN=C1SCC2C(O)C(O)C(O)CN12 [Compound 8, 5-N,6-S-(N′-Butyliminomethylidene)-6-thio-1-deoxy-L-idonojirimycin] | n.i. | n.i. | 19 ± 9 µM | n.i. | n.i. | n.i. | n.i. | – | – | – | – | – | – | –
5 | OC1CN2C(=Nc3ccccc3)SCC2C(O)C1O [Compound 9, 5-N,6-S-(N′-Phenyliminomethylidene)-6-thio-1-deoxy-L-idonojirimycin] | n.i. | n.i. | 309 ± 19 µM | n.i. | n.i. | – | – | – | – | 262 ± 15 µM | 772 ± 35 µM | – | – | –
6 | CCCCCCCCNC(=S)N1C[C@H](O)[C@@H](O)[C@H](O)[C@H]1CO [Compound 10, 1-Deoxy-N-(N′-octylthiocarbamoyl)nojirimicin] | n.i. | – | 1.3 ± 0.1 µM | n.i. | – | n.i. | – | – | 129 ± 10 µM | 481 ± 27 µM | – | 116 ± 8 µM | – | –
7 | CCCCNC(=S)N1C[C@H](O)[C@@H](O)[C@H](O)[C@H]1CO [Compound 11, 1-Deoxy-N-(N′-butylthiocarbamoyl)nojirimicin] | n.i. | – | 20 ± 2 µM | n.i. | – | – | – | – | 213 ± 18 µM | – | 847 ± 42 µM | 121 ± 9 µM | 568 ± 30 µM | –
8 | OC[C@@H]1[C@@H](O)[C@H](O)[C@@H](O)CN1C(=S)Nc1ccccc1 [Compound 12, 1-Deoxy-N-(N′-phenylthiocarbamoyl)nojirimicin] | – | – | 23 ± 3 µM | n.i. | – | – | – | 18 ± 2 µM | 18 ± 2 µM | 60 ± 4 µM | 122 ± 9 µM | 10 ± 1 µM | – | 294 ± 18 µM
9 | CCCCCCCCNC(=S)N1C[C@H](O)[C@@H](O)[C@H](O)[C@@H]1CO [Compound 13, N-(N′-Octylthiocarbamoyl)-1-deoxy-L-idonojirimycin] | n.i. | n.i. | 227 ± 13 µM | n.i. | n.i. | – | n.i. | – | – | – | 60 ± 15 µM | – | – | –
10 | CCCCNC(=S)N1C[C@H](O)[C@@H](O)[C@H](O)[C@@H]1CO [Compound 14, N-(N′-Butylthiocarbamoyl)-1-deoxy-L-idonojirimycin] | n.i. | n.i. | 51 ± 13 µM | n.i. | n.i. | n.i. | n.i. | – | – | – | – | – | – | –
11 | OC[C@H]1[C@@H](O)[C@H](O)[C@@H](O)CN1C(=S)Nc1ccccc1 [Compound 15, N-(N′-Phenylthiocarbamoyl)-1-deoxy-L-idonojirimycin] | n.i. | – | 294 ± 18 µM | n.i. | – | – | – | – | 271 ± 17 µM | 293 ± 18 µM | 77 ± 16 µM | 443 ± 22 µM | – | –
